Laboratory results as given in BigSolDB 2.1.

CC(=O)[C@H]1CC[C@H]2[C@@H]3CCC4=CC(=O)CC[C@]4(C)[C@H]3CC[C@]12C
solubility (mole fraction)
Details | 278.15 K | 283.15 K | 288.15 K | 293.15 K | 298.15 K | 303.15 K | 308.15 K | 313.15 K | 318.15 K | 323.15 K
in 1,4-dioxane | – | – | 0.0614 | 0.073 | 0.0855 | 0.1 | 0.117 | 0.136 | 0.156 | 0.179
in THF | 0.0598 | 0.0701 | 0.0816 | 0.0943 | 0.109 | 0.125 | 0.143 | 0.163 | 0.185 | 0.209
in acetone | 0.0143 | 0.0187 | 0.0244 | 0.0311 | 0.0397 | 0.0494 | 0.0617 | 0.076 | 0.094 | 0.116
in acetonitrile | 0.00716 | 0.0101 | 0.0131 | 0.0178 | 0.0235 | 0.0305 | 0.0396 | 0.0508 | 0.0646 | 0.0816
in ethanol | 0.00337 | 0.00455 | 0.00623 | 0.00859 | 0.0112 | 0.0146 | 0.0192 | 0.0251 | 0.0319 | 0.0411
in ethyl acetate | 0.0142 | 0.0175 | 0.0215 | 0.0266 | 0.0321 | 0.039 | 0.0471 | 0.0566 | 0.0671 | 0.0802
in isopropanol | 0.00314 | 0.00446 | 0.00615 | 0.00841 | 0.0115 | 0.0153 | 0.0203 | 0.0269 | 0.0349 | 0.0455
in methanol | 0.00232 | 0.00335 | 0.00472 | 0.00676 | 0.0092 | 0.0127 | 0.0173 | 0.0234 | 0.0308 | 0.0412
in n-butanol | 0.00706 | 0.00947 | 0.0127 | 0.0164 | 0.0211 | 0.0268 | 0.0346 | 0.0439 | 0.0551 | 0.0682
in n-heptane | 0.000112 | 0.00018 | 0.000281 | 0.000425 | 0.000617 | 0.000914 | 0.00135 | 0.00198 | 0.00284 | 0.00402
in n-propanol | 0.00527 | 0.0071 | 0.00969 | 0.0131 | 0.0171 | 0.0227 | 0.0294 | 0.0378 | 0.0485 | 0.0614
in toluene | 0.0797 | 0.0907 | 0.102 | 0.115 | 0.13 | 0.146 | 0.162 | 0.182 | 0.203 | 0.225
